Measured values as given in patent publication US20100126680A1, “Method For Controlling Enzymatic Decomposition Of Peroxide and Products Thereof” (BUCKMAN LABORATORIES INTERNATIONAL, INC., priority 2008, published 2010).

Columns and labels:
Type in all cases: biochemical
[1] = test system: commercial catalase TERMINOX® Ultra 50L; assay: Filter paper float test of catalase de-activation using distilled water; settings: for Float time: 20 μL catalase/1000 mL distilled water, no-inhibitor float time 75 sec
Description: (§1) A filter paper float test was carried out to study catalase deactivation performance of aldehyde-functional polymers and a conventional catalase inhibitor on bleached paper. In a typical float test, a one-inch square piece of filter paper was saturated with 50% H2O2 solution. With excess H2O2 solution being removed, the treated filter paper was submerged in 200 mL aqueous catalase solution or 200 mL de-inking white water. The catalase solution was prepared by diluting a commercial catalase solution with either distilled water or papermaking white water. Various amounts of the catalase inhibitors being studied were mixed with the catalase solution or de-inking white water for five minutes before the treated filter paper was submerged in the catalase solution or de-inking white paper. Controls also were carried out in which no catalase inhibitor was added to the catalase solution or de-inking paper before the treated filter was submerged therein. The time that was required for the filter paper to rise to the solution surface was recorded and used to determine H2O2 decomposition rate. A longer time for the filter paper to rise to the surface indicated a slower H2O2 decomposition rate.
Catalase de-activation performance of a glyoxalated polyacrylamide (G-PAM) and glutaraldehyde was tested with the filter paper float test using distilled water. As indicated, in a typical test, a square piece of filter was first saturated with 50% H2O2 solution. Various amounts of the two types of catalase inhibitors being studied in this example were mixed with the catalase solution prepared with distilled water for five minutes before the treated filter paper was submerged in the catalase solution. Once the treated filter paper was submerged in catalase solution, catalase started decomposing H2O2 molecules, releasing O2 gas. The faster the H2O2 decomposition rate, the faster the O2 gas being generated, and the shorter the time required for the filter paper to rise to the solution surface. On the other hand, the presence of catalase inhibition will slow down the H2O2 decomposition rate, resulting in longer periods of time for the filter paper to rise to the surface.
Table 1 presents the results of the float tests conducted with 20 μL commercial catalase TERMINOX® Ultra 50L diluted by 1000 mL distilled water to prepare the catalase solution. As indicated, glutaraldehyde and glyoxalated polyacrylamide were studied as the catalytic inhibitors. Glutaraldehyde was chosen as a control for this example. Large quantities of glutaraldehyde are commercially used as a catalase inhibitor. BUBOND® 387 was the source of the glyoxalated polyacrylamide.

[2] = test system: wild catalase in de-inking white water; assay: Filter paper float test of catalase de-activation using de-inking white water
Description: as §1
As an initial observation made with respect to the controls that contained no catalase inhibitor, a significant difference was observed between the papermaking and de-inking sources of white water with respect to wild catalase content. […] The presence of wild catalase in the de-inking white water was confirmed by the float tests. It only took about 40 seconds for the peroxide-treated filter paper to rise to the surface of the de-inking white water that had not been treated with catalase inhibitor (e.g., see Control A, Table 4 below).
Float tests were also carried out with the de-inking white water obtained from a papermaking mill. Various amounts of the catalase inhibitors being studied for this example were mixed with the de-inking white water for five minutes before the treated filter paper was submerged in the de-inking white water. […]

[3] = test system: commercial catalase TERMINOX® Ultra 50L; assay: Filter paper float test of catalase de-activation using papermaking white water; settings: 500 ppm inhibitor
Description: as §1
To test the effect of dissolved and colloidal substances on catalase inhibitors, float tests were also carried out with the white water obtained from a newsprint papermaking mill. […]

O=CCCCC=O [Glutaraldehyde]
Float time ([1]; 50 ppm inhibitor): 80 s | Float time ([1]; 100 ppm inhibitor): 72 s | Float time ([1]; 150 ppm inhibitor): 88 s | Float time ([1]; 200 ppm inhibitor): 103 s | Float time ([1]; 300 ppm inhibitor): 117 s | Float time ([1]; 500 ppm inhibitor): 128 s | filter paper float time ([1]; below 100 ppm inhibitor, distilled water catalase solution): around 75 seconds | Float time ([2]; Dosage 2000 ppm, de-inking white water pre-treated with 1000 ppm BUSAN® 1078 bactericide for 30 minutes, no-inhibitor Control B 35 sec): 40 s | Float time ([2]; Dosage 2000 ppm, de-inking white water, no-inhibitor Control A 39 sec): 68 s | Float time ([2]; Dosage 4000 ppm, de-inking white water pre-treated with 1000 ppm BUSAN® 1078 bactericide for 30 minutes, no-inhibitor Control B 35 sec): 37 s | Float time ([3]; 10 μL catalase/1000 mL papermaking white water, no-inhibitor float time 197 sec): 301 s | Float time ([3]; 20 μL catalase/1000 mL papermaking white water, no-inhibitor float time 67 sec): 130 s
